Measured values: US20230158015A1, “DRUG COMBINATIONS FOR INHIBITING INFLAMMATION AND SRC KINASE ACTIVATION FOLLOWING INVASIVE SURGICAL PROCEDURES” (SINTETICA S.A., priority 2020, published 2023)
Read-outs that look alike come from different tables or passages of the source.

How the values were obtained:
p-Src / total Src [1] = assay: Total Src and p-Src expression in Panc1 human pancreatic cancer cell line (Western blot); assay type: cell-based; conditions: 10 µM lidocaine, 100 nM methylnaltrexone or both, time points up to 6 hours, fresh media
Protocol: • P-Src-Tyr416 (GeneTex # GTX81151) 1:2000 in 5% bovine serum albumin, at room temperature, 4 hours • Total Src (CST # 2108S) 1:3000 in 5% bovine serum albumin, at room temperature, 4 hours
Example 12 evaluated the effect of 10 µM lidocaine (L), 100 nM methylnaltrexone (M) and the combination of 10 µM lidocaine + 100 nM methylnaltrexone (L+M) on total Src and p-Src expression in a human pancreatic cancer cell line (Panc1) at multiple time points up to 6 hours, in fresh media. Experimental conditions were identical to Example 10.

p-Src / total Src [2] = assay type: cell-based, mouse
Protocol: On day 1, mouse KPC-105 cells were cultured until 300,000 cells per well in a 6 well plate were obtained. On day 2, the cells were treated with 0, 0.5, 1,5, 10, 15, 30, 50 and 100 µM lidocaine for 30 minutes. Plates were then collected and washed with phosphate buffered saline and stored at -80° C. Cells were subsequently lysed with 100 µl of radioimmunoprecipitation assay buffer with protease and phosphatase buffers.
Protein estimation was done using a Bradford assay under the following conditions: • A Western Blot was stripped with 6 M guanidine hydrochloride after p-Src protein blocking to probe with total Src protein. • 10% SDS-PAGE 10 well Blocking: 5% bovine serum albumin for p-Src blot. • P-Src-Tyr416 (GeneTex GTX81151) Rb: 1:1000 in 5% bovine serum albumin, Overnight. • Total Src (Cell Signaling Technology 2108S ) Rb mAb 1:1000 overnight in 5% milk. • GAPDH (Invitrogen# AM4300) : 1:5000 in 5% milk overnight. • Wash: 4x for 5 minutes each with 1x TBST. • Developed using 50% femto for the p-Src protein and homemade ECL substrate for total Src and GAPDH protein.
Example 4 evaluated endogenous Src and p-Src in 10 µM lidocaine treated mouse KPC-105 cells at different time points.
Example 5 evaluated endogenous Src and p-Src in mouse KPC-105 cells treated with 10 10 µM lidocaine for different time points, and increasing doses of methylnaltrexone after one hour of incubation. Western Blot banding patterns were generated using 15 µg /lane (NP40 lysates) 10% SDS PAGE over a 6-hour duration (lidocaine) and a 1-hour duration (methylnaltrexone).
• P-Src-Tyr416 (GeneTex # GTX81151) Rb: 1:1000 in 5% bovine serum albumin o/n at 4° C. • 10 µg /lane (NP40 lysates) 10% SDS PAGE • Total Src (CST # 2108S ) Rb mAb 1:1000 in 5% bovine serum albumin o/n at 4° C.
• P-Src-Tyr416 (GeneTex # GTX81151) Rb: 1:1000 in 5% bovine serum albumin 3 hours at room temperature • 10 µg /lane (NP40 lysates) 10% SDS PAGE • Total Src (CST # 2108S ) Rb mAb 1:1000 in 5% bovine serum albumin 3 hours at room temperature
• P-Src-Tyr416 (GeneTex # GTX81151) 1:2000 in 5% bovine serum albumin, o/n at 4° C. • Total Src (CST # 2108S ) 1:3000 in 5% bovine serum albumin, o/n at 4° C. • Vinculin (ProteinTech) 1:4000 in 5% milk o/n at 4° C.
• P-Src-Tyr416 (GeneTex # GTX81151) 1:2000 in 5% bovine serum albumin, o/n at 4C • Total Src (CST # 2108S ) 1:3000 in 5% bovine serum albumin, o/n at 4C

[3] = Example 4, 10 µM lidocaine, different time points
[4] = Example 8, 10 µM lidocaine, 100 nM methylnaltrexone or both, different time points

## CCN(CC)CC(=O)Nc1c(C)cccc1C [lidocaine, 2-diethylaminoaceto-2′,6′-xylidide]
p-Src / total Src [1]
  p-Src: inconsistent effects on decreases in p-Src
p-Src / total Src [2]; Example 3, 30 minutes of treatment, 0-100 µM tested
  dose from which the level of p-Src protein is reduced: ≥ 10 µM
p-Src / total Src [2]; [3]
  Src phosphorylation (p-Src): attenuated Src phosphorylation after 15 minutes and up to 6 hours
  total Src: not affected
p-Src / total Src [2]; Example 5, 10 µM lidocaine over 6 hours, increasing doses of methylnaltrexone, 1 hour
  total Src: not affected
p-Src / total Src [2]; Example 5, 10 µM lidocaine, different time points, inconsistent banding pattern
  Src phosphorylation (p-Src): attenuated Src phosphorylation at 30 minutes, 1 hour, 2 hours, and 6 hours
p-Src / total Src [2]; [4]
  phosphorylation of Src: attenuated phosphorylation of Src after 1 hour of exposure
  total Src: decreased total Src after 1 hours of exposure
